According to US5652105A, “Substrate for detection of mammalian 5-C-DNA methyltransferase” (Health Research, Inc., priority 1995, dated 1997):
[5mC] = 5-methylcytosine

Columns and labels:
[1] = system: murine DNA 5-C-MTase; experiment: Methylation assay: methyl transfer from [methyl-3H]AdoMet to ODNs by DNA methyltransferase from Friend erythroleukemia cell nuclei; type: biochemical; settings: Table 2; enzyme preparation from Friend leukemia cells; 1 μg oligomer; average of 2 expts; background 2691
[2] = system: bacterial SssI methyltransferase; experiment: DNA methylase substrate activity with bacterial SssI enzyme preparation; type: biochemical; settings: Table 3; bacterial SssI enzyme preparation; 0.25 μg oligomer; average of 2 expts; background 1351
Excerpt: They are labeled Sense (S), Antisense (AS), Methylated Antisense 1 (M1) and Methylated Antisense 2 (M2). […] This property of M2 provides an approach to accurately monitoring levels of DNA methyltransferase activity in clinically obtained tissue samples that might otherwise be contaminated by bacteria, since bacterial DNA methyltransferase activity would be excluded as a component of this measurement.
RESULTS ARE AVERAGE OF 2 EXPTS. BACTERIAL SSS1 ENZYME PREPARATION. ASSAYE

[3] = system: murine DNA 5-C-MTase; experiment: Methylation assay: methyl transfer from [methyl-3H]AdoMet to ODNs by DNA methyltransferase from Friend erythroleukemia cell nuclei; type: biochemical; settings: for DNA METHYLASE (FL) SUBSTRATE ACTIVITY, ACTIVITY (CPM): Table 4, single and double stranded constructs, average of 2 expts, background 1813; for RELATIVE ACTIVITY (rate of methylation relative to an equal amount of AS): Table 6, single-stranded ODN; for ACTIVITY (cpm), DNA methylase (FL): Table 5, S + M1 and its 5-fluorocytosine containing double stranded analogs; for rate of methylation relative to unmethylated A (times): ODNs with 5MeC in position 7 designed to form or not to form the stem-loop
Description: The phosphoramidite of 5-fluorodeoxycytidine (5FdC) and unmodified 5-methyl deoxycytosine (5MdC) and 5FC-containing ODNs were synthesized and purified as described in Marasco, C. J. et al., J. Org. […] 5MdC phosphoramidite is commercially available. ss ODNs were heated to 90° C. for 10 min and quickly chilled on ice immediately prior to assay. […] For ds ODNs, an equimolar mixture of complementary ODNs was heated to 90° C. for 10 min and slowly cooled to room temperature.
Preparation of Murine DNA 5-C-MTase. The DNA 5-C-MTase used in these studies was the 100,000×g supernatant of a 0.3M NaCl extract of Friend erythroleukemia cell nuclei.
Methylation Assay. Reaction mixtures (50 μl ) in 0.1M imidazole, pH 7.4/20 mM EDTA/0.5 mM dithiothreitol contained 0.5 μg of each ODN indicated, ≈0.6 units of DNA 5-C-MTase (1 unit transfers 1 pmol to A (AS)·A'Mp (M1) per min; see Table 7), and 2.8 μCi (1 Ci=37 GBq) of [methyl-^3 H]AdoMet (AdoMet=S-adenosylmethionine) (8 μM). […] For accuracy, methylation rates <5 pmol/30 min were measured in quadrupled reaction mixtures (200 μl ). After incubation for 30 min at 37° C., ODNs were processed for quantitation of radiolabel as described (20) with 25 μg of salmon sperm DNA added as carrier prior to perchloric acid precipitation.
All assays were performed in duplicate.

[4] = biological target: T1, DNA 5-C-methyltransferase (murine, Friend erythroleukemia cells) (Mus musculus, UniProt P13864 P13864:1-1620); experiment: methylation rate; settings: protein: extract; tags: 0.3 M NaCl nuclear extract, 100,000 x g supernatant; single approx. 190 kDa species forming covalent complexes
Description: (§1) Methylation Assay. Reaction mixtures (50 µl) in 0.1M imidazole, pH 7.4/20 mM EDTA/0.5 mM dithiothreitol contained 0.5 µg of each ODN indicated, ≈0.6 units of DNA 5-C-MTase (1 unit transfers 1 pmol to A (AS)·A'M_p (M1) per min; see Table 7), and 2.8 µCi (1 Ci=37 GBq) of [methyl-^3H]AdoMet (AdoMet=S-adenosylmethionine) (8 µM). Substrate C sites are in excess in the reaction, and methyl transfer is linear for >45 min. For accuracy, methylation rates <5 pmol/30 min were measured in quadrupled reaction mixtures (200 µl). After incubation for 30 min at 37° C., ODNs were processed for quantitation of radiolabel as described (20) with 25 µg of salmon sperm DNA added as carrier prior to perchloric acid precipitation.
(§2) Substitution of C residues with 5FC was used to determine which sites become substrates for enzymatic methylation in A strands containing 5MeC. It has been shown that both bacterial and mammalian DNA 5-C-MTases form stable covalent linkages with 5FC residues in DNA during the process of methylation. Under conditions of substrate excess, this leads to rapid inactivation of the enzymes. […] Thus, 5MeC in position 5 or 7 activates DNA 5-C-MTase to methylate C18 while failing to activate methylation of a C residue only two bases downstream.

[5] = biological target: T1, DNA 5-C-methyltransferase (murine, …); experiment: methylation rate; settings: protein: extract; tags: 0.3 M NaCl nuclear extract, 100,000 x g supernatant; single approx. 190 kDa species forming covalent complexes; remark: listed apart in the source
[6] = biological target: T2, Hha I DNA methyltransferase (UniProt P05102 P05102:1-327); experiment: ss ODNs not substrates at 37 C
T2 sequence: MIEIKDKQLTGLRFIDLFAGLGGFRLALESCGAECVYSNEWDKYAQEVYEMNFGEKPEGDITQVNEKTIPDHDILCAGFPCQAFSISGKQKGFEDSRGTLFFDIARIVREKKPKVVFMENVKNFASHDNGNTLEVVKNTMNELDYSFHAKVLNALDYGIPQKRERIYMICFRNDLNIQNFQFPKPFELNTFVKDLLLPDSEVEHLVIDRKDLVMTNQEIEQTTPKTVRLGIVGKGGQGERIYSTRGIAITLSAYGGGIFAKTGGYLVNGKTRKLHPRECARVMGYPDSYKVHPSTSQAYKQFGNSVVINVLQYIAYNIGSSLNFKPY

[7] = biological target: T1, DNA 5-C-methyltransferase (murine, …); experiment: inhibition; methylation rate; 5FC in substrate site inactivates enzyme; settings: protein: extract; tags: 0.3 M NaCl nuclear extract, 100,000 x g supernatant; single approx. 190 kDa species forming covalent complexes
Description: as §1, §2

[8] = Table 10, ss ODNs with 5 mC and 5 FC substitutions

T1 sequence (P13864 whole entry, one chain of several): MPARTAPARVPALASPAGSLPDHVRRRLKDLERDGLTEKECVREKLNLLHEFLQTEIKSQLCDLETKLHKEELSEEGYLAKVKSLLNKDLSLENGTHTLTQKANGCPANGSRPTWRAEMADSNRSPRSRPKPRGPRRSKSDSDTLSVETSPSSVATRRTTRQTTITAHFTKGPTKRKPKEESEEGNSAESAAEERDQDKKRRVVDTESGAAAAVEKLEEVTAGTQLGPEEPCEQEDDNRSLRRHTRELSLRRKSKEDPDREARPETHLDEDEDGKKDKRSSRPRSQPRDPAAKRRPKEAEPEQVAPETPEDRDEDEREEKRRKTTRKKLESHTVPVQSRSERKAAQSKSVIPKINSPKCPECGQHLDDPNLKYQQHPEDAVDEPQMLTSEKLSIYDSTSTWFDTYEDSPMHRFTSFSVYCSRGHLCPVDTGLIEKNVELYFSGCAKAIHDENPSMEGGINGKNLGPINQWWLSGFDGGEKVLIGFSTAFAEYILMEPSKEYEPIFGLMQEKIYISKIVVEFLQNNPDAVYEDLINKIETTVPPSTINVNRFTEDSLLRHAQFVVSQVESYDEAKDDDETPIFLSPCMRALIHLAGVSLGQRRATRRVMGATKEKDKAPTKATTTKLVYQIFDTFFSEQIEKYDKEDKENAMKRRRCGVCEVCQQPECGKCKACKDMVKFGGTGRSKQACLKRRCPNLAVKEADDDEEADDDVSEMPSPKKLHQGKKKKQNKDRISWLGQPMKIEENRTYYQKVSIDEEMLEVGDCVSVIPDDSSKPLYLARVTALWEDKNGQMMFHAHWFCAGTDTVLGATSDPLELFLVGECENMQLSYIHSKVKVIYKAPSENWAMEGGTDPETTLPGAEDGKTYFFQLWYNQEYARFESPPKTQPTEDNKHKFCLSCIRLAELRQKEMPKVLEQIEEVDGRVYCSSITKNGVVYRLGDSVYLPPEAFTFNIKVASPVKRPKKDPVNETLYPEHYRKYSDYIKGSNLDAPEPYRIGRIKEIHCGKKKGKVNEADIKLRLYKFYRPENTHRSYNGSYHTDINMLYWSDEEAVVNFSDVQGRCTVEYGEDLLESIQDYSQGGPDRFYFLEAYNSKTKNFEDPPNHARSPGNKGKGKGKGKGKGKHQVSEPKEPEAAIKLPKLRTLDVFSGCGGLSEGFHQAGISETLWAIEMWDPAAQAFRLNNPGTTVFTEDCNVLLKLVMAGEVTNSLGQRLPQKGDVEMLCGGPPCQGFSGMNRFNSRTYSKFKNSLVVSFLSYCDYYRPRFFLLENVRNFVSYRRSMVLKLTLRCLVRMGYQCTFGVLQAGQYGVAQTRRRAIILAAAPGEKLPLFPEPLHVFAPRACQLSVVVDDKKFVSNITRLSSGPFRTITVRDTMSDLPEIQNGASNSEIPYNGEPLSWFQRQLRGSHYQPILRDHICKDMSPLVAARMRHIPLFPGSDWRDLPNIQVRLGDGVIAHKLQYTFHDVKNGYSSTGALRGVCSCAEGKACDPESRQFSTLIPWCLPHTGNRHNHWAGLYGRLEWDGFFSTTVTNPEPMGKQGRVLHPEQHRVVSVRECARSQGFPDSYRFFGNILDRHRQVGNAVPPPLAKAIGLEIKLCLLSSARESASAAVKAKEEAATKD

In the case of “3' TAACGCGTAAGGCCTAGGCGCTAG 5' (chemistry not given here; listed 3' to 5') [unmethylated sense single-stranded 24mer ODN]”, the “DNA METHYLASE SUBSTRATE ACTIVITY, ACTIVITY (CPM)” value (from here on “DNA METHYLASE SUBSTRATE ACTIVITY”) [1] is reported as 4843 CPM, the “DNA METHYLASE SUBSTRATE ACTIVITY” value [2] is reported as 175225 CPM and the “DNA METHYLASE (FL) SUBSTRATE ACTIVITY, ACTIVITY (CPM)” value (from here on “DNA METHYLASE (FL) SUBSTRATE ACTIVITY”) [3] is reported as 1598 CPM.

In the case of “5' ATTGCGCATTCCGGATCCGCGATC 3' (chemistry not given here) [AS, unmethylated antisense single-stranded 24mer ODN]”, the “DNA METHYLASE SUBSTRATE ACTIVITY” value [1] is reported as 12341 CPM, the “DNA METHYLASE SUBSTRATE ACTIVITY” value [2] is reported as 49282 CPM and the “DNA METHYLASE (FL) SUBSTRATE ACTIVITY” value [3] is reported as 1936 CPM. The “RELATIVE ACTIVITY (rate of methylation relative to an equal amount of AS)” value (from here on “RELATIVE ACTIVITY”) [3] was 1 and the “RATE (rate of methylation relative to A)” value [3, 8] was 1.

In the case of “5' ATTGCGNATTCCGGATCCGCGATC 3' (5-methylcytosine at 7, further chemistry not given here) [ASM7, ODN A (AS) with 5-methylcytosine (N) at position 7]”, the “RELATIVE ACTIVITY” value [3] is reported as 170, the Rate of methylation ([3]; Table 7, phosphorothioate end capped oligomers, standard cell free enzyme assay) is reported as 72,010 cpm/μg oligo/30 min and the “RATE (rate of methylation relative to A)” value ([3]; Table 9, ss ODNs with 5MeC substituted for C at the sites given) is reported as 140. The “RATE (rate of methylation relative to A)” value [3, 8] was 130 and the “stimulation of the rate of methylation by phosphorothioate capping” value ([3]; activity of D compared with C) was “more than 50%”.

“5' ATTGCGNATTCCGGATCRGCGATC 3' (5-methylcytosine at 7, 5-fluorocytosine at 18, further chemistry not given here) [ASM7 F18, AS with 5-methylcytosine (N) at 7 and 5-fluorocytosine (R) at 18]” was tested, and the “inhibition of DNA methyltransferase (in words)” value [3] was “potent”, the “RELATIVE ACTIVITY” value [3] was 3 and the “RATE (rate of methylation relative to A)” value [3, 8] was 3.2.

For “5' ATTGNGCATTCNGGATCNGNGATC 3' (5-methylcytosine at 5, 12, 18, 20, further chemistry not given here) [M1, AS with 5-methylcytosine (N) at 5, 12, 18, 20 (all CpG sites)]”, the “DNA METHYLASE SUBSTRATE ACTIVITY” value [1] was 5487 CPM, the “DNA METHYLASE SUBSTRATE ACTIVITY” value [2] was 2339 CPM and the “DNA METHYLASE (FL) SUBSTRATE ACTIVITY” value [3] was 1373 CPM.

With “5' GATCGCGGATCCGGAATGNGCAAT 3' (5-fluorocytosine, further chemistry not given here) [Seq. ID #14]” the “ACTIVITY (cpm), DNA methylase (FL)” value [3] was 36,000 cpm.

“5' GATCGCGGATCNGGAATGCGCAAT 3' (5-fluorocytosine, further chemistry not given here) [Seq. ID #13]” was tested, and the “ACTIVITY (cpm), DNA methylase (FL)” value [3] was 28,000 cpm.

“5' GATCGCGGATNCGGAATGCGCAAT 3' (5-fluorocytosine, further chemistry not given here) [Seq. ID #12]” was tested, and the “ACTIVITY (cpm), DNA methylase (FL)” value [3] was 140,000 cpm.

“structure 6: ODN with 5MeC in position 7 that forms a stem-loop with the same relationship between C7 and C18 as A (FIG. 7, 8) (DNA ATGACGCACCTCGTTGACGCGCTA; DNA, [5mC] at 7, backbone not given here)” was tested, and the “rate of methylation relative to unmethylated A (times)” value [3] was over 300.

With “structure 8: ODN with 5MeC in position 7 that forms a homodimer but no stem-loop analogous to structures 5 and 6 (FIG. 9) (DNA ATTGCGCTACTCGGATCCGGCCAT; DNA, [5mC] at 7, backbone not given here)” the “rate of methylation relative to unmethylated A (times)” value [3] was “same rate as unmethylated A”.

ATTGCGCATTCCGGATCCGCGATC (ssDNA, 5mC at 7,11,17; 5-fluoro-C at 5 [5mC at 7,11,17; 5-fluoro-C at 5]) [AMx F5] was tested, and the binding signal [4] was 170 relative to A.

ATTGCGCATTCCGGATCCGCGATC (ssDNA, 5mC at 18) [ASM18] was tested, and the binding signal [5] was 12 relative to A.

For GATCGCGGATCCGGAATGCGCAAT (ssDNA, 5mC at 6,19) [A' 5mC6,19], the binding signal [5] was 1 relative to A.

ATTGCGCATTCCGGATCCGCGATC (ssDNA) [AS (A)]: no binding [6].

GATCGCGGATCCGGAATGCGCAAT (ssDNA, 5mC at 12) [A' 5mC12] was tested, and the binding signal [5] was 67 relative to A.

ATTGCGCATTCCGGATCCGCGATC (ssDNA, 5mC at 5; 5-fluoro-C at 20) [ASM5 F20] was tested, and the binding signal [4] was 152 relative to A.

GATCGCGGATCCGGAATGCGCAAT (ssDNA, 5mC at 11,21) [M4 (SMx)] was tested, and the binding signal [5] was 75 relative to A.

ATTGCGCATTCCGGATCCGCGATC (ssDNA, 5mC at 7,11,17; 5-fluoro-C at 12 [5mC at 7,11,17; 5-fluoro-C at 12]) [AMx F12] was tested, and the binding signal [4] was 165 relative to A.

For ATTGCGCATTCCGGATCCGCGATC (ssDNA, 5mC at 7; 5-fluoro-C at 20 [5mC at 7; 5-fluoro-C at 20]) [ASM7 F20], the binding signal [4] was 160 relative to A.

For GATCGCGGATCCGGAATGCGCAAT (ssDNA, 5mC at 4) [A' 5mC4], the binding signal [5] was 0.4 relative to A.

In the case of ATTGCGCATTCCGGATCCGCGATC (ssDNA, 5mC at 20) [ASM20], the binding signal [5] is reported as 2.5 relative to A.

GATCGCGGATCCGGAATGCGCAAT (ssDNA, 5mC at 21) [A' 5mC21] was tested, and the binding signal [5] was 37 relative to A.

In the case of ATTGCGCATTCCGGATCCGCGATC (ssDNA, 5mC at 5; 5-fluoro-C at 18) [ASM5 F18], the binding signal [7] is reported as 1 relative to A.

With ATTGCGCATTCCGGATCCGCGATC (ssDNA, 5mC at 7,11,17; 5-fluoro-C at 20 [5mC at 7,11,17; 5-fluoro-C at 20]) [AMx F20] the binding signal [4] was 168 relative to A.

For GATCGCGGATCCGGAATGCGCAAT (ssDNA, 5mC at 11) [A' 5mC11], the binding signal [5] was 1.7 relative to A.

In the case of ATTGCGCATTCCGGATCCGCGATC (ssDNA, 5mC at 17) [ASM17], the binding signal [5] is reported as 3.5 relative to A.

For GATCGCGGATCCGGAATGCGCAAT (ssDNA, 5mC at 19) [A' 5mC19], the binding signal [5] was 1 relative to A.

GATCGCGGATCCGGAATGCGCAAT (ssDNA, 5mC at 6) [A' 5mC6] was tested, and the binding signal [5] was 42 relative to A.

For ATTGCGCATTCCGGATCCGCGATC (ssDNA, 5mC at 7,11,17; 5-fluoro-C at 18 [5mC at 7,11,17; 5-fluoro-C at 18]) [AMx F18], the binding signal [7] was 2 relative to A.
